Source: article PMC4715021, “^177Lu-labelled macrocyclic bisphosphonates for targeting bone metastasis in cancer treatment” (EJNMMI Research, 2016)
Several values for one entry are separate records, joined by “and”; a condition that tells them apart may be missing. Identical values can stand only once.

Key:
[1] = Metabolite analysis and in vivo stability, arterial blood and urine samples; parameters: species or system Wistar rats
Source text: (§1) The experiments were realized corresponding to the German animal welfare regulations and institutional guidelines and with the permission of the local animal research committee at the Landesdirektion, Dresden. All experimental procedures are following the guidelines of the European Convention for the Protection of Vertebrate Animals used for Experimental and other Scientific Purposes (ETS No. 123). Male Wistar rats weighing 157.69 ± 17.10 g (mean ± SD, N = 35) were purchased from Unilever (HsdCpb:WU, Harlan Winkelmann, Borchen, Germany). Anesthetization was initiated and maintained by desflurane, and animals were put in the supine position and placed on a heating pad to maintain body temperature. A needle catheter was used for administration of the tracers in the tail vein. A second catheter was introduced into the right femoral artery for the extraction of blood samples for metabolite analysis, which was routinely done during SPECT/CT measurements.
Arterial blood plasma samples were taken during SPECT/CT examinations after 1, 3, 5, 10, 20, 30, 60, and 120 min. p.i., and the in vivo metabolism of [^177Lu]BPAMD, [^177Lu]BPAPD, [^177Lu]BPPED, [^177Lu]NO2AP^BP, [^177Lu]DOTA(M^BP)2, and [^177Lu]DO2A(P^BP)2 was analyzed. Plasma was separated by centrifugation (3 min, 11,000×g) followed by precipitation of the plasma proteins with ice-cold methanol (1.5 parts per 1 part plasma) and centrifugation (3 min, 11,000×g). The supernatants were analyzed by radio-TLC and HPLC using the abovementioned methods for quality control. Additionally, urine samples were treated in the same way prior radio-TLC and radio-HPLC analysis.

[2] = Ex vivo biodistribution of 177Lu-complexes in Wistar rats; settings: for Biodistribution of radioactivity, Adipose tissue / Biodistribution of radioactivity, Adrenal gland / Biodistribution of radioactivity, Blood / Biodistribution of radioactivity, Brain / Biodistribution of radioactivity, Femur / Biodistribution of radioactivity, Harderian gland / Biodistribution of radioactivity, Heart / Biodistribution of radioactivity, Kidneys / Biodistribution of radioactivity, Liver / Biodistribution of radioactivity, Lung / Biodistribution of radioactivity, Muscle / Biodistribution of radioactivity, Pancreas / Biodistribution of radioactivity, Spleen / Biodistribution of radioactivity, Testes / Biodistribution of radioactivity, Thymus: i.v.
Source text: as §1
The male Wistar rats received a short-term anesthetization by desflurane inhalation. Mean activities of 2.36 ± 0.27 MBq/kg of the ^177Lu-labelled tracers in isotonic saline were injected in a volume of 0.5 mL in the tail vein, with the following specific details: [^177Lu]citrate: 2.56 ± 0.07 MBq/kg, 128.58 body weight (BW, g), n = 4 (g); [^177Lu]BPAMD: 2.33 ± 0.11 MBq/kg, 159.41 BW (g), n = 4 (g); [^177Lu]BPAPD: 2.58 ± 0.24 MBq/kg, 156.38 BW (g), n = 4 (g); [^177Lu]BPPED: 2.27 ± 0.25 MBq/kg, 153.43 BW (g), n = 4 (g); [^177Lu]NO2AP^BP: 2.52 ± 0.25 MBq/kg, 173.82 BW (g), n = 4 (g); [^177Lu]DOTA(M^BP)2: 1.80 ± 0.10 MBq/kg, 181.64 BW (g), n = 4 (g); [^177Lu]DO2A(P^BP)2: 2.46 ± 0.15 MBq/kg, 150.60 BW (g), n = 4 (g). The compounds [^177Lu]DOTA(M^BP)2, [^177Lu]BPPED, and [^177Lu]BPAMD were further chosen for a biodistribution study after 8 days p.i. A mean activity of 19.0 ± 2.5 MBq/kg was injected. Animals were sacrificed after 5 min, 60 min, and 8 days p.i. Organs of interest were excised rapidly and weighed, and the ^177Lu activity was determined with a Wallac WIZARD automatic gamma counter (PerkinElmer, Germany) and decay corrected. The distribution data are expressed in %ID or are normalized to the BW as standard uptake value (SUV), which was calculated with the formula: SUV = (activity per g tissue)/(injected activity) × BW. The skeleton weight was calculated using the following: skeleton weight = 9.66 + 0.0355 × BW, and the total activities associated with the skeleton were calculated by using the activity concentration in the femur and the total skeleton weight.

[3] = 5 min p.i., mean of four animals
[4] = 60 min p.i., mean of four animals
[5] = 8 days p.i., mean for five animals

O=C(O)CN1CCN(CC(=O)O)CCN(CC(=O)NC(P(=O)(O)O)P(=O)(O)O)CCN(CC(=O)O)CC1 [[^177Lu]BPAMD, metal not drawn]
Blood half-life of the slow component (t1/2(β)) ([1]; arterial blood, single intravenous injection): 23.3 min
Metabolization in blood samples (radio-HPLC and TLC) ([1]; within a period of 120 min): no evidence of any metabolization
Ratio Bone/Adipose tissue ([2]; 5 min p.i.): 8.0
Ratio Bone/Adrenal gland ([2]; 5 min p.i.): 8.4
Ratio Bone/Blood ([2]; 5 min p.i.): 3.7
Ratio Bone/Brain ([2]; 5 min p.i.): 83.9
Ratio Bone/Harderian gland ([2]; 5 min p.i.): 9.3
Ratio Bone/Heart ([2]; 5 min p.i.): 9.3
Ratio Bone/Kidneys ([2]; 5 min p.i.): 0.7
Ratio Bone/Liver ([2]; 5 min p.i.): 12.9
Ratio Bone/Lung ([2]; 5 min p.i.): 5.5
Ratio Bone/Muscle ([2]; 5 min p.i.): 17.7
Ratio Bone/Pancreas ([2]; 5 min p.i.): 10.8
Ratio Bone/Spleen ([2]; 5 min p.i.): 9.1
Ratio Bone/Testes ([2]; 5 min p.i.): 13.4
Ratio Bone/Thymus ([2]; 5 min p.i.): 11.6
Biodistribution of radioactivity, Adipose tissue [2, 3]: 0.42 SUV
Biodistribution of radioactivity, Adrenal gland [2, 3]: 0.40 SUV
Biodistribution of radioactivity, Blood [2, 3]: 0.90 SUV
Biodistribution of radioactivity, Brain [2, 3]: 0.04 SUV
Biodistribution of radioactivity, Femur [2, 3]: 3.36 SUV
Biodistribution of radioactivity, Harderian gland [2, 3]: 0.36 SUV
Biodistribution of radioactivity, Heart [2, 3]: 0.36 SUV
Biodistribution of radioactivity, Kidneys [2, 3]: 4.53 SUV
Biodistribution of radioactivity, Liver [2, 3]: 0.26 SUV
Biodistribution of radioactivity, Lung [2, 3]: 0.61 SUV
Biodistribution of radioactivity, Muscle [2, 3]: 0.19 SUV
Biodistribution of radioactivity, Pancreas [2, 3]: 0.31 SUV
Biodistribution of radioactivity, Spleen [2, 3]: 0.37 SUV
Biodistribution of radioactivity, Testes [2, 3]: 0.25 SUV
Biodistribution of radioactivity, Thymus [2, 3]: 0.29 SUV
Ratio Bone/Adipose tissue ([2]; 60 min p.i.): 134.5
Ratio Bone/Adrenal gland ([2]; 60 min p.i.): 109.6
Ratio Bone/Blood ([2]; 60 min p.i.): 135.6
Ratio Bone/Brain ([2]; 60 min p.i.): 613.4
Ratio Bone/Harderian gland ([2]; 60 min p.i.): 118.8
Ratio Bone/Heart ([2]; 60 min p.i.): 210.1
Ratio Bone/Kidneys ([2]; 60 min p.i.): 14.0
Ratio Bone/Liver ([2]; 60 min p.i.): 127.5
Ratio Bone/Lung ([2]; 60 min p.i.): 69.1
Ratio Bone/Muscle ([2]; 60 min p.i.): 251.7
Ratio Bone/Pancreas ([2]; 60 min p.i.): 136.4
Ratio Bone/Spleen ([2]; 60 min p.i.): 68.2
Ratio Bone/Testes ([2]; 60 min p.i.): 179.1
Ratio Bone/Thymus ([2]; 60 min p.i.): 58.6
Biodistribution of radioactivity, Adipose tissue [2, 4]: 0.04 SUV
Biodistribution of radioactivity, Adrenal gland [2, 4]: 0.04 SUV
Biodistribution of radioactivity, Blood [2, 4]: 0.04 ± 0.01 SUV and 0.04 SUV
Biodistribution of radioactivity, Brain [2, 4]: 0.01 SUV
Biodistribution of radioactivity, Femur [2, 4]: 4.84 ± 0.44 SUV and 4.84 SUV
Biodistribution of radioactivity, Harderian gland [2, 4]: 0.04 SUV
Biodistribution of radioactivity, Heart [2, 4]: 0.02 SUV
Biodistribution of radioactivity, Kidneys [2, 4]: 0.35 SUV
Biodistribution of radioactivity, Liver [2, 4]: 0.04 SUV
Biodistribution of radioactivity, Lung [2, 4]: 0.07 SUV
Biodistribution of radioactivity, Muscle [2, 4]: 0.02 SUV
Biodistribution of radioactivity, Pancreas [2, 4]: 0.04 SUV
Biodistribution of radioactivity, Spleen [2, 4]: 0.07 SUV
Biodistribution of radioactivity, Testes [2, 4]: 0.03 SUV
Biodistribution of radioactivity, Thymus [2, 4]: 0.08 SUV
Ratio Bone/Adipose tissue ([2]; 8 days p.i.): 1158
Ratio Bone/Adrenal gland ([2]; 8 days p.i.): 547
Ratio Bone/Blood ([2]; 8 days p.i.): 6703
Ratio Bone/Brain ([2]; 8 days p.i.): 1405
Ratio Bone/Harderian gland ([2]; 8 days p.i.): 48
Ratio Bone/Heart ([2]; 8 days p.i.): 885
Ratio Bone/Kidneys ([2]; 8 days p.i.): 66
Ratio Bone/Liver ([2]; 8 days p.i.): 203
Ratio Bone/Lung ([2]; 8 days p.i.): 634
Ratio Bone/Muscle ([2]; 8 days p.i.): 37
Ratio Bone/Pancreas ([2]; 8 days p.i.): 851
Ratio Bone/Spleen ([2]; 8 days p.i.): 257
Ratio Bone/Testes ([2]; 8 days p.i.): 1136
Ratio Bone/Thymus ([2]; 8 days p.i.): 787
Biodistribution of radioactivity, Adipose tissue [2, 5]: 0.004 SUV
Biodistribution of radioactivity, Adrenal gland [2, 5]: 0.009 SUV
Biodistribution of radioactivity, Blood [2, 5]: 0.001 SUV
Biodistribution of radioactivity, Brain [2, 5]: 0.004 SUV
Biodistribution of radioactivity, Femur [2, 5]: 5.039 SUV
Biodistribution of radioactivity, Harderian gland [2, 5]: 0.105 SUV
Biodistribution of radioactivity, Heart [2, 5]: 0.006 SUV
Biodistribution of radioactivity, Kidneys [2, 5]: 0.076 SUV
Biodistribution of radioactivity, Liver [2, 5]: 0.025 SUV
Biodistribution of radioactivity, Lung [2, 5]: 0.008 SUV
Biodistribution of radioactivity, Muscle [2, 5]: 0.136 SUV
Biodistribution of radioactivity, Pancreas [2, 5]: 0.006 SUV
Biodistribution of radioactivity, Spleen [2, 5]: 0.020 SUV
Biodistribution of radioactivity, Testes [2, 5]: 0.004 SUV
Biodistribution of radioactivity, Thymus [2, 5]: 0.006 SUV
Total skeletal retention ([2]; 8 days p.i., calculated from femur activity concentration and total skeleton weight): constant over 8 days
Total skeleton retention ([2]; after 60 min, calculated from femur activity concentration and total skeleton weight): 46.7 ± 5.3 %ID
